As a reminder, the Kd is the free concentration of one partner at which half of the binding sites on the other are occupied at equilibrium, for simple one-to-one binding. Lower therefore signals tighter binding.

“Also recorded” adds a separate entry of the source.

We go through three substances from PMC11477792, “Fabrication of a Heptapeptide-Modified Poly(glycidyl Methac-Rylate) Nanosphere for Oriented Antibody Immobilization and Immunoassay” (Molecules, 2024).

The test system of one test is IgG. The note with it: ref [22]; cited from earlier work. The source says: (§1) Nowadays, numerous synthetic peptides are designed to specifically recognize and bind the conserved fragment crystallizable (Fc) region of IgG [18, 19], which is one of the most widely utilized types of antibodies in bioanalytical analysis. The Fc binding peptides made excellent exposure of the fragment antigen binding (Fab) region of IgG and thus maintained an easy approachability to the antigen-binding sites of the immobilized antibodies.

For test [1], the target named is heptapeptide HWRGWVC (HC7) coupled to poly(glycidyl methacrylate) nanospheres (PGMA-HC7). The test can be described thus: batch adsorption isotherm (Langmuir fit); bovine IgG 0.4-4 mg/mL added to PGMA-HC7 nanosphere suspension, physiological buffer, 37 °C, 5 min; supernatant IgG read at 280 nm after centrifugation, adsorbed amount by mass balance.
Another test concerns Fc region of IgG. The note with it: ref [17],[21] (b5); ref [15],[16],[17]; cited from earlier work.
Text: as §1

“HWRGWVC [HC7, heptapeptide ligand HWRGWVC, 95% purity, synthesized by GL Biochem Ltd]”: the “affinity for IgG relative to HWRGWV” value in the test on IgG was “two orders of magnitude stronger”. Regarding “bovine immunoglobulin G (IgG) (antibody)”, the Kd in test [1] was determined as 5.8 µM. This lies in the single-digit micromolar range. As for “HWRGWV [hexapeptide ligand that could specifically recognize the Fc region of the antibody]”, in the test with Fc region of IgG, the “Fc selectivity relative to protein A / protein G” value is “comparable to protein A but not comparable to protein G; also recorded: comparable to protein A”.
